experiment: pKa value; format: physicochemical

Compound | pKa
O=S(=O)(Nc1ccccc1)c1ccc(Br)cc1 | 8.5
O=S(=O)(Nc1ccccc1)c1cccc(Br)c1 | 8.25
O=S(=O)(Nc1ccc(F)cc1)c1ccc(Br)cc1 | 8.38
O=S(=O)(Nc1ccccc1)c1ccc(Cl)cc1 | 8.47
Cc1ccc(NS(=O)(=O)c2ccc(Cl)cc2)cc1 | 8.78
Cc1ccc(NS(=O)(=O)c2cccc([N+](=O)[O-])c2)cc1 | 7.8
O=S(=O)(Nc1ccccc1)c1ccc(F)cc1 | 8.9
COc1ccc(S(=O)(=O)Nc2cccc([N+](=O)[O-])c2)cc1 | 8.44
Cc1ccc(S(=O)(=O)Nc2cccc([N+](=O)[O-])c2)cc1 | 8.27
O=S(=O)(Nc1ccc(Cl)cc1)c1ccccc1 | 8.75
Nc1ccc(NS(=O)(=O)c2ccccc2)cc1 | 10.3
Cc1ccc(S(=O)(=O)Nc2ccc(Cl)cc2)cc1 | 9.02
Cc1ccc(NS(=O)(=O)c2ccc(C)cc2)cc1 | 9.65
COc1ccc(S(=O)(=O)Nc2ccccc2)cc1 | 9.42
Cc1ccc(NS(=O)(=O)c2ccc(F)cc2)cc1 | 9.23
Cc1ccc(S(=O)(=O)Nc2ccc(F)cc2)cc1 | 9.2
Cc1ccc(S(=O)(=O)Nc2ccccc2)cc1 | 9.35
O=[N+]([O-])c1cccc(NS(=O)(=O)c2ccc(Cl)cc2)c1 | 7.51
COc1ccc(S(=O)(=O)Nc2ccc(Cl)cc2)cc1 | 9.19
O=[N+]([O-])c1cccc(NS(=O)(=O)c2ccc(F)cc2)c1 | 7.85
O=[N+]([O-])c1ccc(S(=O)(=O)Nc2ccc(Cl)cc2)cc1 | 6.24

Compound | pKa
O=S(=O)(Nc1ccc(Cl)cc1)c1ccc(Cl)cc1 | 8.3
O=S(=O)(Nc1ccc(F)cc1)c1ccc(F)cc1 | 8.73
COc1ccc(S(=O)(=O)Nc2ccc(C)cc2)cc1 | 9.8
O=S(=O)(Nc1ccc(Cl)cc1)c1ccc(F)cc1 | 8.61
Nc1ccc(NS(=O)(=O)c2ccc(Cl)cc2)cc1 | 9.76
O=[N+]([O-])c1cccc(S(=O)(=O)Nc2ccc(F)cc2)c1 | 7.27
O=S(=O)(Nc1ccc(F)cc1)c1ccc(Cl)cc1 | 8.41
O=[N+]([O-])c1ccc(S(=O)(=O)Nc2ccc(F)cc2)cc1 | 6.45
Cc1ccc(NS(=O)(=O)c2ccc([N+](=O)[O-])cc2)cc1 | 6.78
O=[N+]([O-])c1cccc(S(=O)(=O)Nc2ccccc2)c1 | 7.5
O=S(=O)(Nc1ccc(Cl)cc1)c1ccc(Br)cc1 | 8.24
Cc1ccc(NS(=O)(=O)c2ccccc2)cc1 | 9.34
O=[N+]([O-])c1ccc(S(=O)(=O)Nc2cccc([N+](=O)[O-])c2)cc1 | 5.51
Cc1cccc(S(=O)(=O)Nc2ccc(N)cc2)c1 | 10.4
Cc1ccc(S(=O)(=O)Nc2ccc(N)cc2)cc1 | 10.5
COc1ccc(S(=O)(=O)Nc2ccc(F)cc2)cc1 | 9.32
O=[N+]([O-])c1cccc(NS(=O)(=O)c2ccc(Br)cc2)c1 | 7.42
O=S(=O)(Nc1ccc(F)cc1)c1ccccc1 | 8.85
O=[N+]([O-])c1cccc(S(=O)(=O)Nc2ccc(Cl)cc2)c1 | 7.19
O=[N+]([O-])c1cccc(NS(=O)(=O)c2ccccc2)c1 | 7.93
O=S(=O)(Nc1ccccc1)c1ccccc1 [PHENYL(PHENYLSULFONYL)AMINE] | 9.1
